Legend:
Type in all cases: in vivo
rice (Oryza sativa) = test: Test D flooded paddy test, visual plant response rating; conditions: 250 g ai/ha, scale 0 to 100 (0 no effect, 100 complete control), 13 to 15 d
In short: (§1)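 Plants were grown to the 2-leaf stage, pots flooded to 3 cm above soil, and compound applied directly into the paddy water, with the depth held throughout. After 13 to 15 d in a greenhouse, response was rated visually against untreated controls on a 0–100 scale (0 no effect, 100 complete control).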

[1] = system: sedge umbrella (small-flower umbrella sedge, Cyperus difformis); test: as above; conditions: 250 g ai/ha, scale 0 to 100 (0 no effect, 100 complete control), 13 to 15 d
In short: as §1

[2] = system: barnyardgrass (Echinochloa crus-galli); test: as above; conditions: 250 g ai/ha, scale 0 to 100 (0 no effect, 100 complete control), 13 to 15 d
In short: as §1

[3] = system: duck salad (Heteranthera limosa); test: as above; conditions: 250 g ai/ha, scale 0 to 100 (0 no effect, 100 complete control), 13 to 15 d
In short: as §1

kochia (Bassia scoparia) [4] = test: Test C preemergence, visual plant response rating
In short: (§2)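 Compounds in a non-phytotoxic solvent with surfactant were applied as a directed soil spray preemergence or to 2–10 cm, one- to two-leaf plants postemergence, in loam–sand soil. After about 10 d in a greenhouse, injury was visually rated against untreated controls on a 0–100 scale (100 = complete control).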

[5] = system: ragweed (common ragweed, Ambrosia artemisiifolia); test: Test C preemergence, visual plant response rating
In short: as §2

[6] = system: barnyardgrass (Echinochloa crus-galli); test: Test C preemergence, visual plant response rating
In short: as §2

[7] = system: pigweed (Amaranthus retroflexus); test: Test C preemergence, visual plant response rating
In short: as §2

[8] = system: Italian ryegrass (Lolium mutiflorum); test: Test C preemergence, visual plant response rating
In short: as §2

[9] = system: foxtail, giant (giant foxtail, Setaria faberi); test: Test C preemergence, visual plant response rating
In short: as §2

corn (Zea mays) = test: Test C postemergence, visual plant response rating; conditions: Test C, postemergence
In short: as §2

kochia (Bassia scoparia) [10] = test: Test C postemergence, visual plant response rating; conditions: Test C, postemergence
In short: as §2

[11] = system: ragweed (common ragweed, Ambrosia artemisiifolia); test: Test C postemergence, visual plant response rating
In short: as §2

[12] = system: barnyardgrass (Echinochloa crus-galli); test: Test C postemergence, visual plant response rating; conditions: Test C, postemergence
In short: as §2

[13] = system: pigweed (Amaranthus retroflexus); test: Test C postemergence, visual plant response rating
In short: as §2

[14] = system: wheat (Triticum aestivum); test: Test C postemergence, visual plant response rating
In short: as §2

[15] = system: blackgrass (Alopecurus myosuroides); test: Test C postemergence, visual plant response rating; conditions: Test C, postemergence
In short: as §2

[16] = system: Italian ryegrass (Lolium mutiflorum); test: Test C postemergence, visual plant response rating
In short: as §2

[17] = system: foxtail, giant (giant foxtail, Setaria faberi); test: Test C postemergence, visual plant response rating; conditions: Test C, postemergence
In short: as §2

[18] = system: galium (catchweed bedstraw, Galium aparine); test: Test C postemergence, visual plant response rating; conditions: Test C, postemergence
In short: as §2

[19] = Test C, 31 g ai/ha, 0 is no effect, 100 is complete control
[20] = Test C, postemergence, 125 g ai/ha
[21] = Test C, postemergence, 500 g ai/ha

Row | SMILES | Plant response rating, Rice (Flood) (rice (Oryza sativa)) | Plant response rating, Sedge, Umbrella (Flood) [1] | Plant response rating, Barnyardgrass (Flood) [2] | Plant response rating, Ducksalad (Flood) [3] | Kochia plant response rating (0 to 100 scale) (kochia (Bassia scoparia) [4]; 125 g ai/ha) | Ragweed plant response rating (0 to 100 scale) ([5]; 125 g ai/ha) | Barnyardgrass plant response rating (0 to 100 scale) ([6]; 125 g ai/ha) | Pigweed plant response rating (0 to 100 scale) ([7]; 125 g ai/ha) | Ryegrass, Italian plant response rating (0 to 100 scale) ([8]; 125 g ai/ha) | Foxtail, Giant plant response rating (0 to 100 scale) ([9]; 125 g ai/ha) | Corn plant response rating (0 to 100 scale) (corn (Zea mays); 125 g ai/ha) | Kochia plant response rating (0 to 100 scale) (kochia (Bassia scoparia) [10]; 125 g ai/ha) | Ragweed plant response rating (0 to 100 scale) [11, 20] | Barnyardgrass plant response rating (0 to 100 scale) ([12]; 125 g ai/ha) | Pigweed plant response rating (0 to 100 scale) [13, 20] | Wheat plant response rating (0 to 100 scale) [14, 20] | Blackgrass plant response rating (0 to 100 scale) ([15]; 125 g ai/ha) | Ryegrass, Italian plant response rating (0 to 100 scale) [16, 20] | Foxtail, Giant plant response rating (0 to 100 scale) ([17]; 125 g ai/ha) | Galium plant response rating (0 to 100 scale) ([18]; 125 g ai/ha) | also measured
1 | CO/N=C(\c1cc(Cl)cc(Br)c1)c1c(O)c(C)nn(C)c1=O [Compound 157] | 0 | 0 | 0 | 0 | 100 | 100 | 90 | 40 | 100 | 100 | 30 | 100 | 100 | 80 | 60 | 60 | 20 | 100 | 90 | 100 | Kochia plant response rating (0 to 100 scale) (kochia (Bassia scoparia) [4]; [19]): 50; Ragweed plant response rating (0 to 100 scale) [5, 19]: 100; Barnyardgrass plant response rating (0 to 100 scale) [6, 19]: 70; Pigweed plant response rating (0 to 100 scale) [7, 19]: 10; Ryegrass, Italian plant response rating (0 to 100 scale) [8, 19]: 90; Foxtail, Giant plant response rating (0 to 100 scale) [9, 19]: 80; Corn plant response rating (0 to 100 scale) (corn (Zea mays); 31 g ai/ha): 10; Kochia plant response rating (0 to 100 scale) (kochia (Bassia scoparia) [10]; 31 g ai/ha): 80; Ragweed plant response rating (0 to 100 scale) ([11]; Postemergence, 31 g ai/ha): 70; Barnyardgrass plant response rating (0 to 100 scale) ([12]; 31 g ai/ha): 30; Pigweed plant response rating (0 to 100 scale) ([13]; Postemergence, 31 g ai/ha): 20; Wheat plant response rating (0 to 100 scale) ([14]; Postemergence, 31 g ai/ha): 0; Blackgrass plant response rating (0 to 100 scale) ([15]; 31 g ai/ha): 10; Ryegrass, Italian plant response rating (0 to 100 scale) ([16]; Postemergence, 31 g ai/ha): 70; Foxtail, Giant plant response rating (0 to 100 scale) ([17]; 31 g ai/ha): 60; Galium plant response rating (0 to 100 scale) ([18]; 31 g ai/ha): 90
2 | CON=C(c1csc(C)c1)c1c(O)c(C)nn(C)c1=O [Compound 151] | 0 | 0 | 0 | 0 | 0 | 0 | 0 | 0 | 0 | 0 | 0 | 0 | 0 | 0 | 10 | 0 | 0 | 20 | 0 | 40 | Kochia plant response rating (0 to 100 scale) (kochia (Bassia scoparia) [4]; 500 g ai/ha): 0; Ragweed plant response rating (0 to 100 scale) ([5]; 500 g ai/ha): 0; Barnyardgrass plant response rating (0 to 100 scale) ([6]; 500 g ai/ha): 0; Pigweed plant response rating (0 to 100 scale) ([7]; 500 g ai/ha): 0; Ryegrass, Italian plant response rating (0 to 100 scale) ([8]; 500 g ai/ha): 30; Foxtail, Giant plant response rating (0 to 100 scale) ([9]; 500 g ai/ha): 0; Corn plant response rating (0 to 100 scale) (corn (Zea mays); 500 g ai/ha): 0; Kochia plant response rating (0 to 100 scale) (kochia (Bassia scoparia) [10]; 500 g ai/ha): 20; Ragweed plant response rating (0 to 100 scale) [11, 21]: 30; Barnyardgrass plant response rating (0 to 100 scale) ([12]; 500 g ai/ha): 10; Pigweed plant response rating (0 to 100 scale) [13, 21]: 10; Wheat plant response rating (0 to 100 scale) [14, 21]: 0; Blackgrass plant response rating (0 to 100 scale) ([15]; 500 g ai/ha): 30; Ryegrass, Italian plant response rating (0 to 100 scale) [16, 21]: 30; Foxtail, Giant plant response rating (0 to 100 scale) ([17]; 500 g ai/ha): 10; Galium plant response rating (0 to 100 scale) ([18]; 500 g ai/ha): 50

— patent US20210045385A1, “PYRIDAZINONE-SUBSTITUTED KETOXIMES AS HERBICIDES” (FMC Corporation, priority 2018, published 2021)
